Measured values: patent publication US6362369B1, “Phthalic acid diamide derivatives fluorine-containing aniline compounds as starting material, agricultural and horticultural insecticides, and a method for application of the insecticides” (Nihon Nohyaku Co., Ltd., priority 1997, dated 2002)

How the values were obtained:
Type in all cases: in vivo
[1] = test system: rice leafroller (Cnaphalocrocis medinalis); experiment: Insecticidal effect on rice leafroller (Test Example 3); conditions: 500 ppm, 25° C., humidity 70%; for Insecticidal effect, Test Example 3: rice lamina immersed; for Insecticidal effect, Test Example 3 / Insecticidal effect on rice leafroller (Test Example 3), judged grade: four days after inoculation; for Insecticidal effect (Test Example 3), judged from mortality / Insecticidal effect on rice leafroller (Test Example 3), judged grade: rice lamina dip; for Insecticidal effect (Test Example 3), judged from mortality: 4 days after inoculation; for Insecticidal effect on rice leafroller (Test Example 3), judged grade: third-instar larvae
Method in brief: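 Insecticidal effect is judged by a predefined criterion from dead/alive counts four days after infesting air-dried lamina with third-instar larvae, kept on moistened filter paper at 25° C, 70% humidity.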

[2] = test system: diamondback moth (Plutella xylostella); experiment: Insecticidal effect on diamondback moth (Test Example 1); conditions: for Insecticidal effect, Test Example 1 / Insecticidal effect (Test Example 1), judged from mortality: diamondback moth; for Insecticidal effect (Test Example 1), judged from mortality: judged by the criterion of Test Example 1; for Insecticidal effect on diamondback moth (Test Example 1), judged grade: mortality judged according to the criterion shown in Test Example 1
Method in brief: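 Oviposition by adults on Chinese cabbage seedling; immersion; air-dry; 25° C room. Count of hatched larvae at day 6 post-immersion → mortality → effect graded by criterion. Triplicate, 10 insects/group.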

[3] = test system: common cutworm (Spodoptera Litura); experiment: Insecticidal effect on common cutworm (Test Example 2); conditions: 500 ppm, 25° C.; for Insecticidal effect, Test Example 2: cabbage leaf immersed; for Insecticidal effect, Test Example 2 / Insecticidal effect on common cutworm (Test Example 2), judged grade: eight days after inoculation; for Insecticidal effect (Test Example 2), judged from mortality / Insecticidal effect on common cutworm (Test Example 2), judged grade: cabbage leaf dip; for Insecticidal effect (Test Example 2), judged from mortality: 8 days after inoculation; for Insecticidal effect on common cutworm (Test Example 2), judged grade: second-instar larvae
Method in brief: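 2nd-instar larvae on air-dried treatment, closed dish, 25° C; dead/alive counted at day 8. Mortality calculated, graded by criterion. 3 × 10 insects.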

[4] = third-instar larvae of rice leafroller
[5] = judged by the mortality criterion of Test Example 1
[6] = second-instar larvae of common cutworm
[7] = rice leafroller third-instar larvae
[8] = mortality judged by criterion of Test Example 1
[9] = common cutworm second-instar larvae

Row | SMILES | Insecticidal effect, Test Example 3 [1, 4] | Insecticidal effect, Test Example 1 [2, 5] | Insecticidal effect, Test Example 2 [3, 6] | Insecticidal effect, Test Example 3 [1, 7] | Insecticidal effect, Test Example 1 [2, 8] | Insecticidal effect, Test Example 2 [3, 9] | further results
1 | CC(C)NC(=O)c1c(Cl)cccc1C(=O)Nc1ccc2oc(C(F)(F)F)nc2c1 [compound 165] | C (89-80) | A (100) | B (99-90) | – | – | – | –
2 | CC(C)NC(=O)c1cccc(I)c1C(=O)Nc1ccc(C(F)(C(F)(F)F)C(F)(F)F)cc1 [compound 416] | A (100) | A (100) | A (100) | – | – | – | –
3 | CCN(CC)C(=O)c1c(I)cccc1C(=O)Nc1ccc(C(F)(C(F)(F)F)C(F)(F)F)cc1C [compound 1532] | – | – | – | – | – | – | Insecticidal effect (Test Example 3), judged from mortality [1, 4]: A (100); Insecticidal effect (Test Example 1), judged from mortality [2]: A (100); Insecticidal effect (Test Example 2), judged from mortality [3, 6]: A (100)
4 | Cc1ccc(NC(=O)c2cccc(Br)c2C(=O)NC(C)C)c(C)c1OC(F)F [compound 284] | A (100) | A (100) | A (100) | – | – | – | –
5 | CC(C)NC(=O)c1c(I)cccc1C(=O)Nc1ccc(Cl)cc1 [compound 345] | A (100) | A (100) | B (99-90) | – | – | – | –
6 | Cc1cc(C(F)(F)C(F)(F)F)ccc1NC(=O)c1cccc(Cl)c1C(=O)NCc1cccc(Cl)c1 [compound 1335] | – | – | – | A (100) | A (100) | C (89-80) | –
7 | CC(C)NC(=O)c1c(Cl)cccc1C(=O)Nc1cccc(Cl)c1Cl [compound 111] | B (99-90) | A (100) | C (89-80) | – | – | – | –
8 | Cc1cc(OC(F)(F)Br)ccc1NC(=O)c1cccc(Cl)c1C(=O)NC(C)(C)C [compound 1050] | – | – | – | A (100) | A (100) | A (100) | –
9 | CC(C)NC(=O)c1c(I)cccc1C(=O)Nc1ccc2oc(C(F)(F)C(F)(F)F)nc2c1 [compound 1142] | – | – | – | A (100) | A (100) | A (100) | –
10 | CCC(C)NC(=O)c1c(I)cccc1C(=O)Nc1ccc(OC(F)F)cc1C (stereo not drawn) [compound 1454] | – | – | – | – | – | – | Insecticidal effect (Test Example 3), judged from mortality [1, 4]: A (100); Insecticidal effect (Test Example 1), judged from mortality [2]: A (100); Insecticidal effect (Test Example 2), judged from mortality [3, 6]: A (100)
11 | CC(C)NC(=O)c1c(Cl)cccc1C(=O)Nc1ccc2c(c1)OC(F)(F)C2(F)F [compound 973] | – | – | – | A (100) | A (100) | A (100) | –
12 | CC(C)NC(=O)c1ccccc1C(=O)Nc1ccc(OC(F)(F)F)cc1Br [compound 48] | A (100) | A (100) | B (99-90) | – | – | – | –
13 | CSc1cccc(C(=O)Nc2cccc(Cl)c2C)c1C(=O)NC(C)C [compound 780] | – | – | – | – | – | – | Insecticidal effect on rice leafroller (Test Example 3), judged grade [1]: A (100); Insecticidal effect on diamondback moth (Test Example 1), judged grade [2]: A (100); Insecticidal effect on common cutworm (Test Example 2), judged grade [3]: A (100)
14 | CC(C)(C)NC(=O)c1c(Cl)cccc1C(=O)Nc1ccc(OC(F)(F)F)cc1Cl [compound 1022] | – | – | – | A (100) | A (100) | A (100) | –
15 | CC(C)(C)NC(=O)c1c(I)cccc1C(=O)Nc1ccc2oc(C(F)(F)C(F)(F)F)nc2c1 [compound 1143] | – | – | – | A (100) | A (100) | C (89-80) | –
16 | Cc1cc(OC(F)(F)Br)ccc1NC(=O)c1cccc(F)c1C(=O)NC(C)C [compound 511] | – | – | – | – | – | – | Insecticidal effect on rice leafroller (Test Example 3), judged grade [1]: A (100); Insecticidal effect on diamondback moth (Test Example 1), judged grade [2]: A (100); Insecticidal effect on common cutworm (Test Example 2), judged grade [3]: A (100)
17 | Cc1cc(OC(F)(F)C(F)(Cl)Cl)ccc1NC(=O)c1cccc(F)c1C(=O)NC(C)C [compound 502] | – | – | – | – | – | – | Insecticidal effect on rice leafroller (Test Example 3), judged grade [1]: A (100); Insecticidal effect on diamondback moth (Test Example 1), judged grade [2]: A (100); Insecticidal effect on common cutworm (Test Example 2), judged grade [3]: A (100)
18 | CC(C)NC(=O)c1c(C(=O)Nc2ccc(SC(F)(F)F)cc2)cccc1[N+](=O)[O-] [compound 996] | – | – | – | A (100) | A (100) | A (100) | –
